The source of these data is PubChem BioAssay AID330 (DTP/NCI, 2004).

Values joined by “and” are separate entries in the source; they are usually repeats but may differ in a detail not shown here. Equal entries are not always repeated. Inconclusive results and toxic doses are left out.

The test system of the experiment is P388 leukemia ip, CD2F1 mice, survival T/C. Briefly: NCI In Vivo Anticancer Drug Screen. Data for tumor model P388 Leukemia (intraperitoneal) in CD2F1 (CDF1) mice. Conditions: endpoint: median survival time, higher = longer survival. The gist of the method: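 Mice carrying the transplanted tumor received test compound or vehicle. Survival was recorded in each group, and the value is the treated-group measurement divided by that of the vehicle-treated control group.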

[1] abbreviates: dose: 60.0 mg/kg/injection, schedule: Q01DX005 (ip), vehicle: saline with Tween-80.
[2] abbreviates: dose: 120.0 mg/kg/injection, schedule: Q01DX005 (ip), vehicle: saline with Tween-80.
[3] abbreviates: dose: 240.0 mg/kg/injection, schedule: Q01DX005 (ip), vehicle: saline with Tween-80.
The mark [4] stands for this setting: dose: 25.0 mg/kg/injection, schedule: Q04DX003 (ip), vehicle: saline.
Setting [5] is: dose: 50.0 mg/kg/injection, schedule: Q04DX003 (ip), vehicle: saline.
Where [6] appears, read: dose: 100.0 mg/kg/injection, schedule: Q04DX003 (ip), vehicle: saline.
The mark [7] stands for this setting: dose: 50.0 mg/kg/injection, schedule: Q01DX005 (ip), vehicle: saline.
Setting [8] is: dose: 100.0 mg/kg/injection, schedule: Q01DX005 (ip), vehicle: saline.
Setting [9] is: dose: 50.0 mg/kg/injection, schedule: Q01DX009 (ip), vehicle: saline with Tween-80.
[10] abbreviates: dose: 100.0 mg/kg/injection, schedule: Q01DX009 (ip), vehicle: saline with Tween-80.
Setting [11] is: dose: 50.0 mg/kg/injection, schedule: Q01DX005 (ip), vehicle: saline with Tween-80.
[12] abbreviates: dose: 100.0 mg/kg/injection, schedule: Q01DX005 (ip), vehicle: saline with Tween-80.
Setting [13] is: dose: 200.0 mg/kg/injection, schedule: Q01DX005 (ip), vehicle: saline with Tween-80.
The mark [14] stands for this setting: dose: 100.0 mg/kg/injection, schedule: Q04DX003 (ip), vehicle: Klucel (hydroxypropylcellulose) (HPC).
The mark [15] stands for this setting: dose: 200.0 mg/kg/injection, schedule: Q04DX003 (ip), vehicle: Klucel (hydroxypropylcellulose) (HPC).
Setting [16] is: dose: 400.0 mg/kg/injection, schedule: Q04DX003 (ip), vehicle: Klucel (hydroxypropylcellulose) (HPC).
Setting [17] is: dose: 200.0 mg/kg/injection, schedule: Q01DX009 (ip), vehicle: saline with Tween-80.

As to `CC(C)(C)OC(=O)NNS(=O)(=O)CCC(N)C(=O)O` (configuration not stated), the T/C is, setting by setting: (dose: 12.5 mg/kg/injection, schedule: Q01DX009 (ip), vehicle: other) 106 % of control; (dose: 25.0 mg/kg/injection, schedule: Q01DX009 (ip), vehicle: other) 106 % of control; (dose: 50.0 mg/kg/injection, schedule: Q01DX009 (ip), vehicle: other) 97 % of control; (dose: 100.0 mg/kg/injection, schedule: Q01DX009 (ip), vehicle: other) 97 % of control; (dose: 200.0 mg/kg/injection, schedule: Q01DX009 (ip), vehicle: other) 100 % of control.

Consider `C=CCNc1nc2c(s1)c(C)c(O)c1ccccc12`, for which the T/C runs as follows: under setting [1], 93 % of control; under setting [2], 96 % of control; under setting [3], 106 % of control.

`CSc1nc(N)c(C(N)=O)s1`: the T/C was 100 % of control (dose: 50.0 mg/kg/injection, schedule: Q01DX009 (ip), vehicle: Klucel (hydroxypropylcellulose) (HPC)); 103 % of control (dose: 100.0 mg/kg/injection, schedule: Q01DX009 (ip), vehicle: Klucel (hydroxypropylcellulose) (HPC)); 109 % of control (dose: 200.0 mg/kg/injection, schedule: Q01DX009 (ip), vehicle: Klucel (hydroxypropylcellulose) (HPC)).

On to `Cc1ncc([N+](=O)[O-])n1CCn1nnc2c1CCCC2`, for which the T/C by setting is: under setting [4], 100 % of control and 109 % of control; under setting [5], 100 % of control and 109 % of control; under setting [6], 115 % of control and 96 % of control; (dose: 200.0 mg/kg/injection, schedule: Q04DX003 (ip), vehicle: saline) 99 % of control and 115 % of control.

Consider `CC(C)(C#N)OC(=O)Nc1c(Cl)cccc1Cl`, for which the T/C is 100 % of control under setting [1], 98 % of control under setting [2] and 94 % of control under setting [3].

For the compound `COc1cc(OC)c2c[n+](C)c3c4cc(OC)c(OC)cc4ccc3c2c1`, the T/C is, setting by setting: (dose: 20.0 mg/kg/injection, schedule: Q01DX009 (ip), vehicle: saline with Tween-80) 161 % of control; (dose: 40.0 mg/kg/injection, schedule: Q01DX009 (ip), vehicle: saline with Tween-80) 169 % of control.

On to `CC(O)C(=O)N(C)CCCO` (configuration not stated), for which the T/C is 92 % of control under setting [7]; 101 % of control under setting [8]; 100 % of control (dose: 200.0 mg/kg/injection, schedule: Q01DX005 (ip), vehicle: saline).

With `COP(=S)(OC)SCc1cc(=O)n2c(C)cccc2n1`, the T/C runs as follows: (dose: 6.25 mg/kg/injection, schedule: Q01DX005 (ip), vehicle: distilled water + alcohol) 102 % of control; (dose: 12.5 mg/kg/injection, schedule: Q01DX005 (ip), vehicle: distilled water + alcohol) 100 % of control; (dose: 25.0 mg/kg/injection, schedule: Q01DX005 (ip), vehicle: distilled water + alcohol) 102 % of control.

As to `COc1cc2oc3ccccc3c(=O)c2cc1CSc1ccccc1N`, the T/C is, setting by setting: (dose: 12.5 mg/kg/injection, schedule: Q01DX009 (ip), vehicle: saline with Tween-80) 89 % of control and 96 % of control; (dose: 25.0 mg/kg/injection, schedule: Q01DX009 (ip), vehicle: saline with Tween-80) 93 % of control and 98 % of control; under setting [9], 92 % of control and 96 % of control; under setting [10], 87 % of control and 89 % of control.

`CNC1C(OC2C(OC3C(O)C(O)C(N=C(N)N)C(O)C3N=C(N)N)OC(C)C2(O)/C=N/NC(N)=S)OC(CO)C(O)C1O` (configuration not stated): the T/C under setting [11] is 101 % of control, the T/C under setting [12] is 100 % of control and the T/C under setting [13] is 103 % of control.

As to `CC(C)=CC(=O)OC1C2C(C)=CC(O)C(O)C2(C)C2C3(O)OCC24C(CC(=O)OC14)C(C)C3O` (configuration not stated), the T/C runs as follows: (dose: 0.31 mg/kg/injection, schedule: Q01DX005 (ip), vehicle: distilled water + Tween-80) 123 % of control; (dose: 0.75 mg/kg/injection, schedule: Q01DX009 (ip), vehicle: saline with Tween-80) 160 % of control; (dose: 1.0 mg/kg/injection, schedule: Q01DX005 (ip), vehicle: distilled water + Tween-80) 154 % of control; (dose: 2.0 mg/kg/injection, schedule: Q01DX005 (ip), vehicle: distilled water + Tween-80) 154 % of control; (dose: 4.0 mg/kg/injection, schedule: Q01DX005 (ip), vehicle: distilled water + Tween-80) 163 % of control; (dose: 5.0 mg/kg/injection, schedule: Q01DX005 (ip), vehicle: distilled water + Tween-80) 153 % of control. Where the note is “dose: 6.0 mg/kg/injection, schedule: Q01DX009 (ip), vehicle: saline with Tween-80”, the T/C is 109 % of control.

In the case of `C=C[CH2][Sn]([CH3])([CH3])[CH2]C=C`, the T/C is 96 % of control under setting [7] and 107 % of control under setting [8].

For the compound `COC(=O)C1CC2CCCCC2C1C(=O)OC` (configuration not stated), the T/C under setting [14] was 89 % of control, the T/C under setting [15] was 87 % of control and the T/C under setting [16] is 89 % of control.

As for `CC(C)(O)/C=C/C(=O)C(C)(O)C1C(O)CC2(C)C3CC=C4C(CC(=O)C(O)C4(C)C)C3(C)C(=O)CC12C` (configuration not stated), the T/C by setting is: (dose: 0.5 mg/kg/injection, schedule: Q01DX009 (ip), vehicle: saline + alcohol) 119 % of control; (dose: 1.0 mg/kg/injection, schedule: Q01DX009 (ip), vehicle: saline + alcohol) 119 % of control; (dose: 2.0 mg/kg/injection, schedule: Q01DX009 (ip), vehicle: saline + alcohol) 121 % of control and 120 % of control.

For the compound `CC(=O)Nc1ccc2c(c1)C(N)c1ccccc1-2` (configuration not stated), the T/C by setting is: (dose: 100.0 mg/kg/injection, schedule: Q04DX003 (ip), vehicle: saline with Tween-80) 104 % of control; (dose: 200.0 mg/kg/injection, schedule: Q04DX003 (ip), vehicle: saline with Tween-80) 118 % of control.

On to `COC(=O)C1CC2C3C=CC(C4C(=O)NC(=O)C34)C12OC` (configuration not stated), for which the T/C by setting is: (dose: 100.0 mg/kg/injection, schedule: Q01DX001 (ip), vehicle: saline with Tween-80) 95 % of control; (dose: 200.0 mg/kg/injection, schedule: Q01DX001 (ip), vehicle: saline with Tween-80) 92 % of control.

With `Cc1c(Cl)ccc2c(C(O)CBr)cc(-c3ccccc3)nc12` (configuration not stated), the T/C reads like this: under setting [10], 103 % of control; under setting [17], 109 % of control; (dose: 400.0 mg/kg/injection, schedule: Q01DX009 (ip), vehicle: saline with Tween-80) 100 % of control.

For the compound `CCN=Cc1c(O)c(O)c(C(C)C)c2cc(C)c(-c3c(C)cc4c(C(C)C)c(O)c(O)c(C=NCC)c4c3O)c(O)c12`, the T/C was 86 % of control under setting [11], 86 % of control under setting [12] and 104 % of control under setting [13].

For `NC1(P(=O)(O)O)CCCCC1`, the T/C is, setting by setting: under setting [9], 116 % of control; under setting [10], 111 % of control; under setting [17], 111 % of control.

With `C1CC2CCC1CNC2`, the T/C was 104 % of control under setting [4], 104 % of control under setting [5] and 95 % of control under setting [6].

In the case of `CCOC(=O)COC1=NN(c2cccc(C(F)(F)F)c2)CC1`, the T/C under setting [14] is 110 % of control, the T/C under setting [15] is 110 % of control and the T/C under setting [16] is 109 % of control.

Take `COC(=O)n1oc2ccc(Br)cc2c1=O`: the T/C (dose: 50.0 mg/kg/injection, schedule: Q01DX005 (ip), vehicle: Klucel (hydroxypropylcellulose) (HPC)) is 98 % of control; the T/C (dose: 100.0 mg/kg/injection, schedule: Q01DX005 (ip), vehicle: Klucel (hydroxypropylcellulose) (HPC)) is 100 % of control; the T/C (dose: 200.0 mg/kg/injection, schedule: Q01DX005 (ip), vehicle: Klucel (hydroxypropylcellulose) (HPC)) was 106 % of control.

`CN=C(N)N/N=C(\C)c1ccc(/C(C)=N/NC(N)=NC)cc1`: the T/C (dose: 25.0 mg/kg/injection, schedule: Q04DX002 (ip), vehicle: saline with Tween-80) is 112 % of control.

Turning to `COc1ccccc1NC(=O)C1=C(C)NC(C)=C(C(=O)Nc2ccccc2OC)C1c1ccc(Cl)cc1Cl`, the T/C was 103 % of control under setting [11], 103 % of control under setting [12] and 91 % of control under setting [13].

For the compound `CCOC(=O)C(NC(=O)c1ccccc1)(C(=O)OCC)c1ccccn1`, the T/C is 99 % of control (dose: 60.0 mg/kg/injection, schedule: Q01DX005 (ip), vehicle: saline); 99 % of control (dose: 120.0 mg/kg/injection, schedule: Q01DX005 (ip), vehicle: saline); 105 % of control (dose: 240.0 mg/kg/injection, schedule: Q01DX005 (ip), vehicle: saline).
